Entries after “also recorded” stand apart in the source; their conditions may differ.
Tests used:
[1] = tested on: GM3 expression in C32 human melanoma cells; assay: GM3 fluorescent-linked immunosorbent assay (FLISA), C32 cells; assay type: cell-based; conditions: 48 hours
Source text: Inhibition of glucosylceramide synthase activity can be measured with one or more assays. A first assay is a microsomal assay that directly measures the conversion of ceramide to glucosylceramide by HPLC. Microsomes are a source of glucosylceramide synthase activity in the microsomal assay. A second assay is a cell based, phenotypic assay that monitors cell surface expression of the downstream lipid GM3 by antibody mediated immunofluorescence. Specific protocols are provided below.
This is a phenotypic assay that measures GM3 expression in B16 mouse melanoma or C32 human melanoma cells following treatment with test compounds. Cell surface GM3 expression is determined by antibody mediated fluorescence.
Compounds are diluted in media and plated in 384 well plates in DMSO. B16 and C32 cells are assayed at densities of 20,000 cells/ml and 62,500 cells/ml, respectively, per well. Each titration curve contains 10 points that are assayed in duplicate on each test run. The plates are incubated for 48 hours at 37° C., 5% CO2, and are then washed once with TBS. Anti-GM3 antibody is added to each well and the plates are then incubated for an additional one hour at room temperature. Plates are subsequently washed twice and incubated for an additional hour with the labeled secondary antibody. Following the final incubation, the plates are washed twice and the fluorescence at λex=D640/20 nm and λem=657 nm is detected on a fluorescent reader.
The results of the microsomal assays are expressed as “GCS IC50”, which represents the concentration of the compound causing 50% inhibition of glucosylceramide synthase activity. The results of the cell-based assays are expressed as “GM3 B16 IC50” or “GM3 C32 IC50” for the B16 assay and the C32 assay, respectively. These values represent the concentration of the compound causing 50% inhibition of GM3 expression on the cell surface.

[2] = Study 1 Part 2: pharmacokinetics with and without a high-fat meal; assay type: in vivo, human; conditions: healthy men, single oral 5 mg dose
Source text: Study 1 was a 2-part single-center trial in healthy adult male volunteers.
Part 1 of the study enrolled and randomized 55 healthy men (placebo, n=14; 2-, 5-, 15, 25-, 50, and 100-mg doses, n=6 each; 150-mg dose, n=5). Eight healthy men participated in Part 2.
After a 7-day washout period, participants were crossed over to the other condition.

[3] = tested on: GL-3 inclusions in superficial endothelial cell capillaries; assay: Clinical study in Fabry disease patients: GL-3 inclusion volume fraction by electron microscopy; assay type: in vivo, human; conditions: 15 mg/day oral
Source text: In addition to scoring GL-3 skin inclusions by light microscopy, the fraction of the volume of endothelial cell cytoplasm occupied by GL-3 inclusions was estimated using point-counting of electron microscopic images by a masked reader. Images from at least 50 superficial endothelial cell capillaries were obtained using electron microscopy at 7500× magnification. Two-sided t tests were used to evaluate differences between baseline and post-treatment values at each time point.

[4] = tested on: adult patients with Gaucher disease Type 3; assay: Clinical study in GD-3 patients: interstitial lung disease by high-resolution CT; assay type: in vivo, human; conditions: 15 mg/day + imiglucerase
Description: (§1) During the study patients were evaluated for safety and tolerability, CSF and plasma biomarkers (glucosylceramide, GL-1; glucosylsphingosine, lyso-GL1), pharmacokinetics, markers for systemic disease (spleen and liver volume measured by magnetic resonance imaging (MRI), platelet count, hemoglobin levels), indicia of interstitial lung disease (high resolution pulmonary computed tomography (CT)), and horizontal saccadic eye movement.
Severity of interstitial lung disease was characterized by the percent of lung volume affect by ILD as measured by high-resolution CT in four lung regions (aortic arch, carina, lower zone L3, lower zone L4). Patients were rated as having severe ILD (51-100% of lung volume affected), moderate ILD (26-50% of lung volume affected), mild ILD (1-25% of lung volume affected) or normal (0% of lung volume showing ILD).

[5] = tested on: healthy, human volunteers; assay: Phase 1 studies in healthy volunteers: safety; assay type: in vivo
Description: Compound 2 is also known as venglustat.
In all studies, safety profile was assessed by monitoring treatment-emergent adverse events (TEAEs) through 10 days after last dose of study medication, including serious adverse events [SAEs]), ECG monitoring, laboratory values, and physical examinations.

[6] = tested on: adult patients with Gaucher disease Type 3; assay: Clinical study in GD-3 patients: safety and tolerability; assay type: in vivo, human; conditions: 15 mg/day + imiglucerase
Description: as §1

[7] = Week 26, individual Patients 1-5

## CC(C)(NC(=O)O[C@@H]1CN2CCC1CC2)c1csc(-c2ccc(F)cc2)n1 [Compound 2, (S)-quinuclidin-3-yl 2-(2-(4-fluorophenyl)thiazol-4-yl)propan-2-ylcarbamate]
[1]
  IC50: 9.6 nM
[2]
  Effect of a high-fat meal on exposure compared with fasting conditions: no effect
[2]; fed or fasting
  Median tmax: 6.00 h
[3]; 3 months (N = 9)
  Volume fraction (volume of inclusions/total cytoplasmic volume): 0.29 ± 0.06
[3]; 3 months (N = 9), P 0.74
  Volume fraction, Change from baseline: −1.9%
[3]; 3 years (N = 6)
  Volume fraction (volume of inclusions/total cytoplasmic volume): 0.18 ± 0.03
[3]; 3 years (N = 6), P 0.001
  Volume fraction, Change from baseline: −38.7%
[3]; 6 months (N = 8)
  Volume fraction (volume of inclusions/total cytoplasmic volume): 0.23 ± 0.04
[3]; 6 months (N = 8), P 0.001
  Volume fraction, Change from baseline: −21.1%
[4]; [7]
  ILD severity, Aortic Arch Left: Norm (normal (0% of lung volume showing ILD)); also recorded: Mild (mild ILD (1-25% of lung volume affected))
  ILD severity, Aortic Arch Right: Norm (normal (0% of lung volume showing ILD)); also recorded: Mild (mild ILD (1-25% of lung volume affected))
  ILD severity, Carina Left: Norm (normal (0% of lung volume showing ILD)); also recorded: Mild (mild ILD (1-25% of lung volume affected))
  ILD severity, Carina Right: Norm (normal (0% of lung volume showing ILD)); also recorded: Mod (moderate ILD (26-50% of lung volume affected)); also recorded: Mild (mild ILD (1-25% of lung volume affected))
  ILD severity, Zone L3 Left: Norm (normal (0% of lung volume showing ILD)); also recorded: Mild (mild ILD (1-25% of lung volume affected))
  ILD severity, Zone L3 Right: Norm (normal (0% of lung volume showing ILD)); also recorded: Mild (mild ILD (1-25% of lung volume affected))
  ILD severity, Zone L4 Left: Norm (normal (0% of lung volume showing ILD)); also recorded: Mod (moderate ILD (26-50% of lung volume affected))
  ILD severity, Zone L4 Right: Norm (normal (0% of lung volume showing ILD)); also recorded: Mod (moderate ILD (26-50% of lung volume affected))
[4]; after 26 weeks
  Patients showing regression of ILD: 4 out of 5
[5]; all Phase 1 studies
  Hematologic or biochemical abnormalities: No clinically relevant hematologic or biochemical abnormalities
  Vital signs: no relevant changes from baseline
[5]; all Phase 1 studies (single 2-150 mg; 5-20 mg daily for 14 days)
  Deaths, SAEs, severe TEAEs, discontinuations: no deaths, SAEs, severe TEAEs, or TEAEs leading to study discontinuation
[5]; single ascending dose and food effect studies
  ECG parameters: no relevant changes
[6]; 26 weeks, all 5 patients
  Treatment-emergent adverse events: no serious or lasting treatment-emergent adverse events
[6]; 52 weeks, six patients
  Severity and relatedness of treatment-emergent adverse events: mild or moderate in severity, and none of which were considered related to treatment with Compound 2 or imiglucerase
  Total treatment-emergent adverse events reported: 30
